# Values of other authors in patent publication US20210347751A1, “METHOD FOR EFFICIENT EXTRACTION OF PLANT ANTHOCYANIDIN” (priority 2018, published 2021).
# Where two headings read alike, the source gives them in different places.
# Columns and labels:
# [1] = in vivo
Compound,Water solubility (10° C.),Water solubility (20° C.),Water solubility (30° C.),Water solubility (40° C.),Water solubility (60° C.),Water solubility (70° C.),Water solubility (80° C.),Water solubility (90° C.),Water solubility (100° C.),bioavailability in the human body [1]
[Cl-].[K+] [potassium chloride],31.2 gram/100 g of water,34.2 gram/100 g of water,37.2 gram/100 g of water,40.1 gram/100 g of water,45.8 gram/100 g of water,48.8 gram/100 g of water,51.3 gram/100 g of water,53.9 gram/100 g of water,56.3 gram/100 g of water,–
Anthocyanins,–,–,–,–,–,–,–,–,–,almost zero
